Test results as given in the supplement of paper PMC10883282.
± gives the standard deviation of the averaged measurements.

Assays:
Assay in all cases: relative viability vs DMSO control (72 h) (fraction); higher = more viable cells
SW982 = system: SW982
Method in brief: (§1)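 Percent growth from ATPLite readings, averaged over up to triplicate wells, was used as relative viability. Sarcoma cell lines were seeded into 384-well plates for 80–90% confluence, dosed after 24 h, and kept 72 h at 37 °C, 5% CO2. Data were rescaled to a range where 1 is full and 0 is none.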

MES-SA = system: MES-SA
Method in brief: as §1

SK-ES-1 = system: SK-ES-1
Method in brief: as §1

A204 = system: A204
Method in brief: as §1

VA-ES-BJ = system: VA-ES-BJ
Method in brief: as §1

Structure (SMILES): CNC(=O)c1cc(Oc2ccc(NC(=O)Nc3ccc(Cl)c(C(F)(F)F)c3)cc2)ccn1 [Sorafenib]
- relative viability (SW982; 0.00017 µM): 1.07 ± 0.023
- relative viability (SW982; 0.00051 µM): 1.06 ± 0.039
- relative viability (SW982; 0.00152 µM): 1.05 ± 0.04
- relative viability (SW982; 0.00457 µM): 1.07 ± 0.037
- relative viability (SW982; 0.01372 µM): 1.06 ± 0.038
- relative viability (SW982; 0.04115 µM): 1.07 ± 0.026
- relative viability (SW982; 0.1235 µM): 1.07 ± 0.033
- relative viability (SW982; 0.3704 µM): 1.07 ± 0.034
- relative viability (SW982; 1.111 µM): 1.06 ± 0.047
- relative viability (SW982; 3.333 µM): 0.992 ± 0.064
- relative viability (SW982; 10 µM): 0.559 ± 0.027
- relative viability (MES-SA; 0.00017 µM): 0.928 ± 0.022
- relative viability (MES-SA; 0.00051 µM): 0.925 ± 0.034
- relative viability (MES-SA; 0.00152 µM): 0.909 ± 0.052
- relative viability (MES-SA; 0.00457 µM): 0.934 ± 0.062
- relative viability (MES-SA; 0.01372 µM): 0.923 ± 0.088
- relative viability (MES-SA; 0.04115 µM): 0.949 ± 0.039
- relative viability (MES-SA; 0.1235 µM): 1.01 ± 0.051
- relative viability (MES-SA; 0.3704 µM): 1.03 ± 0.039
- relative viability (MES-SA; 1.111 µM): 0.985 ± 0.067
- relative viability (MES-SA; 3.333 µM): 0.716 ± 0.021
- relative viability (MES-SA; 10 µM): 0.135 ± 0.0095
- relative viability (SK-ES-1; 0.00017 µM): 0.978 ± 0.077
- relative viability (SK-ES-1; 0.00051 µM): 1.01 ± 0.0071
- relative viability (SK-ES-1; 0.00152 µM): 1.04 ± 0.035
- relative viability (SK-ES-1; 0.00457 µM): 1.05 ± 0.027
- relative viability (SK-ES-1; 0.01372 µM): 1.07 ± 0.016
- relative viability (SK-ES-1; 0.04115 µM): 1.01 ± 0.027
- relative viability (SK-ES-1; 0.1235 µM): 1.06 ± 0.034
- relative viability (SK-ES-1; 0.3704 µM): 1.07 ± 0.031
- relative viability (SK-ES-1; 1.111 µM): 0.96 ± 0.065
- relative viability (SK-ES-1; 3.333 µM): 0.8855 ± 0.0053
- relative viability (SK-ES-1; 10 µM): 0.252 ± 0.0099
- relative viability (A204; 0.00017 µM): 1.07 ± 0.069
- relative viability (A204; 0.00051 µM): 1.1 ± 0.03
- relative viability (A204; 0.00152 µM): 1.09 ± 0.046
- relative viability (A204; 0.00457 µM): 1.11 ± 0.065
- relative viability (A204; 0.01372 µM): 1.06 ± 0.037
- relative viability (A204; 0.04115 µM): 1.08 ± 0.036
- relative viability (A204; 0.1235 µM): 0.914 ± 0.14
- relative viability (A204; 0.3704 µM): 0.567 ± 0.024
- relative viability (A204; 1.111 µM): 0.51 ± 0.011
- relative viability (A204; 3.333 µM): 0.385 ± 0.024
- relative viability (A204; 10 µM): 0.157 ± 0.02
- relative viability (VA-ES-BJ; 0.00017 µM): 1.04 ± 0.022
- relative viability (VA-ES-BJ; 0.00051 µM): 1.07 ± 0.027
- relative viability (VA-ES-BJ; 0.00152 µM): 1.07 ± 0.022
- relative viability (VA-ES-BJ; 0.00457 µM): 1.06 ± 0.013
- relative viability (VA-ES-BJ; 0.01372 µM): 1.07 ± 0.028
- relative viability (VA-ES-BJ; 0.04115 µM): 1.09 ± 0.048
- relative viability (VA-ES-BJ; 0.1235 µM): 1.11 ± 0.03
- relative viability (VA-ES-BJ; 0.3704 µM): 1.143 ± 0.011
- relative viability (VA-ES-BJ; 1.111 µM): 1.15 ± 0.017
- relative viability (VA-ES-BJ; 3.333 µM): 1.14 ± 0.051
- relative viability (VA-ES-BJ; 10 µM): 0.436 ± 0.0078

Structure (SMILES): CCN(c1cc(-c2ccc(CN3CCOCC3)cc2)cc(C(=O)NCc2c(C)cc(C)[nH]c2=O)c1C)C1CCOCC1 [Tazemetostat]
- relative viability (SW982; 0.00017 µM): 0.968 ± 0.023
- relative viability (SW982; 0.00051 µM): 0.988 ± 0.016
- relative viability (SW982; 0.00152 µM): 0.977 ± 0.05
- relative viability (SW982; 0.00457 µM): 0.98 ± 0.036
- relative viability (SW982; 0.01372 µM): 0.973 ± 0.021
- relative viability (SW982; 0.04115 µM): 1.02 ± 0.018
- relative viability (SW982; 0.1235 µM): 0.985 ± 0.036
- relative viability (SW982; 0.3704 µM): 0.951 ± 0.051
- relative viability (SW982; 1.111 µM): 0.958 ± 0.055
- relative viability (SW982; 3.333 µM): 0.926 ± 0.027
- relative viability (SW982; 10 µM): 0.932 ± 0.072
- relative viability (MES-SA; 0.00017 µM): 1 ± 0.04
- relative viability (MES-SA; 0.00051 µM): 0.988 ± 0.025
- relative viability (MES-SA; 0.00152 µM): 0.9899 ± 0.0077
- relative viability (MES-SA; 0.00457 µM): 0.986 ± 0.025
- relative viability (MES-SA; 0.01372 µM): 0.977 ± 0.021
- relative viability (MES-SA; 0.04115 µM): 0.998 ± 0.03
- relative viability (MES-SA; 0.1235 µM): 1 ± 0.03
- relative viability (MES-SA; 0.3704 µM): 0.942 ± 0.014
- relative viability (MES-SA; 1.111 µM): 0.933 ± 0.026
- relative viability (MES-SA; 3.333 µM): 0.926 ± 0.046
- relative viability (MES-SA; 10 µM): 0.874 ± 0.039
- relative viability (SK-ES-1; 0.00017 µM): 1.03 ± 0.019
- relative viability (SK-ES-1; 0.00051 µM): 1.01 ± 0.011
- relative viability (SK-ES-1; 0.00152 µM): 0.982 ± 0.0058
- relative viability (SK-ES-1; 0.00457 µM): 0.993 ± 0.027
- relative viability (SK-ES-1; 0.01372 µM): 0.972 ± 0.024
- relative viability (SK-ES-1; 0.04115 µM): 1.03 ± 0.034
- relative viability (SK-ES-1; 0.1235 µM): 1.009 ± 0.0032
- relative viability (SK-ES-1; 0.3704 µM): 0.998 ± 0.0064
- relative viability (SK-ES-1; 1.111 µM): 0.991 ± 0.032
- relative viability (SK-ES-1; 3.333 µM): 0.961 ± 0.056
- relative viability (SK-ES-1; 10 µM): 0.995 ± 0.073
- relative viability (A204; 0.00017 µM): 1.04 ± 0.03
- relative viability (A204; 0.00051 µM): 1.09 ± 0.075
- relative viability (A204; 0.00152 µM): 1.08 ± 0.032
- relative viability (A204; 0.00457 µM): 1.07 ± 0.038
- relative viability (A204; 0.01372 µM): 1.03 ± 0.042
- relative viability (A204; 0.04115 µM): 1.069 ± 0.009
- relative viability (A204; 0.1235 µM): 1.08 ± 0.026
- relative viability (A204; 0.3704 µM): 1.08 ± 0.018
- relative viability (A204; 1.111 µM): 1.08 ± 0.031
- relative viability (A204; 3.333 µM): 1.09 ± 0.042
- relative viability (A204; 10 µM): 1.05 ± 0.015
- relative viability (VA-ES-BJ; 0.00017 µM): 1.038 ± 0.0072
- relative viability (VA-ES-BJ; 0.00051 µM): 1.046 ± 0.0049
- relative viability (VA-ES-BJ; 0.00152 µM): 1.05 ± 0.022
- relative viability (VA-ES-BJ; 0.00457 µM): 1.05 ± 0.044
- relative viability (VA-ES-BJ; 0.01372 µM): 1.034 ± 0.0078
- relative viability (VA-ES-BJ; 0.04115 µM): 1.06 ± 0.043
- relative viability (VA-ES-BJ; 0.1235 µM): 1.06 ± 0.048
- relative viability (VA-ES-BJ; 0.3704 µM): 1.07 ± 0.038
- relative viability (VA-ES-BJ; 1.111 µM): 1.06 ± 0.038
- relative viability (VA-ES-BJ; 3.333 µM): 1.08 ± 0.043
- relative viability (VA-ES-BJ; 10 µM): 1.07 ± 0.026
